Laboratory results taken from PubChem BioAssay AID1259407 (Chemical Carcinogenesis Research Information System (CCRIS), 2018).
Activity calls are given as the source filed them. The rule behind the calls is not given here.

System: CCRIS mutagenicity, Ames/micronucleus/aberration tests
Experiment: CCRIS mutagenicity studies

Cc1ccc(N)cc1N
mutagenic call (End Point: IN VITRO CHROMOSOMAL ABERRATIONS, Test System: CHL CELLS, Metabolic Activation: NONE): active; positive (structural changes) | mutagenic call (End Point: IN VITRO CHROMOSOMAL ABERRATIONS, Test System: CHL CELLS, Metabolic Activation: RAT, LIVER, S-9, SODIUM PHENOBARBITAL AND 5,6-BENZOFLAVONE): active; positive (structural changes) | mutagenic call (End Point: IN VITRO CHROMOSOMAL ABERRATIONS, Test System: CHO-LB CELLS, Metabolic Activation: NONE): active; positive | mutagenic call (End Point: IN VITRO CHROMOSOMAL ABERRATIONS, Test System: CHO-LB CELLS, Metabolic Activation: RAT, LIVER, S-9, AROCLOR 1254): active; positive | mutagenic call (End Point: IN VITRO CHROMOSOMAL ABERRATIONS, Test System: CHO-WBL CELLS, Metabolic Activation: NONE): active; positive | mutagenic call (End Point: IN VITRO MICRONUCLEUS, Test System: HUMAN HEPATOMA HEP G2 CELLS, Metabolic Activation: NONE): active; positive | mutagenic call (Test System: AMES SALMONELLA TYPHIMURIUM, Strain/Indicator: TA97, Metabolic Activation: RAT, LIVER, S-9, AROCLOR 1254 (4 OR 10%), Method: STANDARD PLATE): inactive; negative | mutagenic call (Test System: AMES SALMONELLA TYPHIMURIUM, Strain/Indicator: TA98(1,8-DNP6), Metabolic Activation: PLANT CELLS, Method: PREINCUBATION): inactive; negative | mutagenic call (Test System: AMES SALMONELLA TYPHIMURIUM, Strain/Indicator: TA98(1,8-DNP6), Metabolic Activation: RAT, LIVER, S-9, AROCLOR 1254, Method: STANDARD PLATE): inactive; negative | mutagenic call (Test System: AMES SALMONELLA TYPHIMURIUM, Strain/Indicator: TA98(PYG219), Metabolic Activation: RAT, LIVER, S-9, AROCLOR 1254, Method: STANDARD PLATE): active; positive | mutagenic call (Test System: AMES SALMONELLA TYPHIMURIUM, Strain/Indicator: TA98, Metabolic Activation: MOUSE, LIVER, S-9, PHENOBARBITONE AND BETA-NAPHTHOFLAVONE, Method: STANDARD PLATE): active; positive | mutagenic call (Test System: AMES SALMONELLA TYPHIMURIUM, Strain/Indicator: TA98, Metabolic Activation: NONE, Method: MICROSUSPENSION): inactive; negative | mutagenic call (Test System: AMES SALMONELLA TYPHIMURIUM, Strain/Indicator: TA98, Metabolic Activation: NONE, Method: SUSPENSION/PLATE): inactive; negative | mutagenic call (Test System: AMES SALMONELLA TYPHIMURIUM, Strain/Indicator: TA98, Metabolic Activation: PLANT CELLS, Method: PREINCUBATION): inactive; negative | mutagenic call (Test System: AMES SALMONELLA TYPHIMURIUM, Strain/Indicator: TA98, Metabolic Activation: RAT LIVER CYTOSOL, AROCLOR 1254, Method: PREINCUBATION): inactive; negative | mutagenic call (Test System: AMES SALMONELLA TYPHIMURIUM, Strain/Indicator: TA98, Metabolic Activation: RAT LIVER MICROSOMES, AROCLOR 1254, Method: PREINCUBATION): active; positive | mutagenic call (Test System: AMES SALMONELLA TYPHIMURIUM, Strain/Indicator: TA98, Metabolic Activation: RAT LIVER S-9, AROCLOR 1254, Method: MICROSUSPENSION): active; positive | mutagenic call (Test System: AMES SALMONELLA TYPHIMURIUM, Strain/Indicator: TA98, Metabolic Activation: RAT LIVER S-9, PHENOBARBITAL AND BETA-NAPHTHOFLAVONE, Method: PREINCUBATION): active; positive | mutagenic call (Test System: AMES SALMONELLA TYPHIMURIUM, Strain/Indicator: TA98, Metabolic Activation: RAT, LIVER, HEPATOCYTES, AROCLOR 1254, Method: STANDARD PLATE): active; positive | mutagenic call (Test System: AMES SALMONELLA TYPHIMURIUM, Strain/Indicator: TA98, Metabolic Activation: RAT, LIVER, MICROSOMES, AROCLOR 1254, Method: PREINCUBATION): active; positive | mutagenic call (Test System: AMES SALMONELLA TYPHIMURIUM, Strain/Indicator: TA98, Metabolic Activation: RAT, LIVER, MICROSOMES, BENZO[A]PYRENE, Method: PREINCUBATION): active; positive | mutagenic call (Test System: AMES SALMONELLA TYPHIMURIUM, Strain/Indicator: TA98, Metabolic Activation: RAT, LIVER, MICROSOMES, CLOFIBRATE, Method: PREINCUBATION): inactive; negative | mutagenic call (Test System: AMES SALMONELLA TYPHIMURIUM, Strain/Indicator: TA98, Metabolic Activation: RAT, LIVER, MICROSOMES, DEXAMETHASONE, Method: PREINCUBATION): inactive; negative | mutagenic call (Test System: AMES SALMONELLA TYPHIMURIUM, Strain/Indicator: TA98, Metabolic Activation: RAT, LIVER, MICROSOMES, DIAMINOTOLUENE, Method: PREINCUBATION): active; positive | mutagenic call (Test System: AMES SALMONELLA TYPHIMURIUM, Strain/Indicator: TA98, Metabolic Activation: RAT, LIVER, MICROSOMES, ISONIAZID, Method: PREINCUBATION): inactive; negative | mutagenic call (Test System: AMES SALMONELLA TYPHIMURIUM, Strain/Indicator: TA98, Metabolic Activation: RAT, LIVER, MICROSOMES, PHENOBARBITAL, Method: PREINCUBATION): inactive; negative | mutagenic call (Test System: AMES SALMONELLA TYPHIMURIUM, Strain/Indicator: TA98, Metabolic Activation: RAT, LIVER, MICROSOMES, Method: PREINCUBATION): inactive; negative | mutagenic call (Test System: AMES SALMONELLA TYPHIMURIUM, Strain/Indicator: TA98, Metabolic Activation: RAT, LIVER, S-9, AROCLOR 1254, Method: STANDARD PLATE): active; positive | mutagenic call (Test System: AMES SALMONELLA TYPHIMURIUM, Strain/Indicator: TA98, Metabolic Activation: RAT, LIVER, S-9, AROCLOR, Method: PREINCUBATION): active; positive | mutagenic call (Test System: AMES SALMONELLA TYPHIMURIUM, Strain/Indicator: TA98, Metabolic Activation: RAT, LIVER, S-9, PCB, Method: PREINCUBATION): active; positive | mutagenic call (Test System: AMES SALMONELLA TYPHIMURIUM, Strain/Indicator: TA98, Metabolic Activation: RAT, LIVER, S-9, PHENOBARBITAL AND 5,6-BENZOFLAVONE, Method: PREINCUBATION): active; positive | mutagenic call (Test System: AMES SALMONELLA TYPHIMURIUM, Strain/Indicator: TA98, Metabolic Activation: RAT, LIVER, S-9, PHENOBARBITAL AND 5,6-BENZOFLAVONE, Method: SUSPENSION/PLATE): active; positive | mutagenic call (Test System: AMES SALMONELLA TYPHIMURIUM, Strain/Indicator: TA100, Metabolic Activation: NONE, Method: MICROSUSPENSION): inactive; negative | mutagenic call (Test System: AMES SALMONELLA TYPHIMURIUM, Strain/Indicator: TA100, Metabolic Activation: NONE, Method: PREINCUBATION): inactive; negative | mutagenic call (Test System: AMES SALMONELLA TYPHIMURIUM, Strain/Indicator: TA100, Metabolic Activation: NONE, Method: SUSPENSION/PLATE): inactive; negative | mutagenic call (Test System: AMES SALMONELLA TYPHIMURIUM, Strain/Indicator: TA100, Metabolic Activation: RAT LIVER S-9, AROCLOR 1254, Method: MICROSUSPENSION): inactive; negative | mutagenic call (Test System: AMES SALMONELLA TYPHIMURIUM, Strain/Indicator: TA100, Metabolic Activation: RAT LIVER S-9, PHENOBARBITAL AND BETA-NAPHTHOFLAVONE, Method: PREINCUBATION): active; positive | mutagenic call (Test System: AMES SALMONELLA TYPHIMURIUM, Strain/Indicator: TA100, Metabolic Activation: RAT, LIVER, S-9, AROCLOR 1254, Method: STANDARD PLATE): active; positive | mutagenic call (Test System: AMES SALMONELLA TYPHIMURIUM, Strain/Indicator: TA100, Metabolic Activation: RAT, LIVER, S-9, PCB, Method: PREINCUBATION): active; positive | mutagenic call (Test System: AMES SALMONELLA TYPHIMURIUM, Strain/Indicator: TA100, Metabolic Activation: RAT, LIVER, S-9, PHENOBARBITAL AND 5,6-BENZOFLAVONE, Method: PREINCUBATION): active; positive | mutagenic call (Test System: AMES SALMONELLA TYPHIMURIUM, Strain/Indicator: TA100, Metabolic Activation: RAT, LIVER, S-9, PHENOBARBITAL AND 5,6-BENZOFLAVONE, Method: SUSPENSION/PLATE): active; positive | mutagenic call (Test System: AMES SALMONELLA TYPHIMURIUM, Strain/Indicator: TA1535, Metabolic Activation: NONE, Method: PREINCUBATION): inactive; negative | mutagenic call (Test System: AMES SALMONELLA TYPHIMURIUM, Strain/Indicator: TA1535, Metabolic Activation: RAT LIVER S-9, PHENOBARBITAL AND BETA-NAPHTHOFLAVONE, Method: PREINCUBATION): inactive; negative | mutagenic call (Test System: AMES SALMONELLA TYPHIMURIUM, Strain/Indicator: TA1537, Metabolic Activation: NONE, Method: PREINCUBATION): inactive; negative | mutagenic call (Test System: AMES SALMONELLA TYPHIMURIUM, Strain/Indicator: TA1537, Metabolic Activation: RAT LIVER S-9, PHENOBARBITAL AND BETA-NAPHTHOFLAVONE, Method: PREINCUBATION): active; positive | mutagenic call (Test System: AMES SALMONELLA TYPHIMURIUM, Strain/Indicator: TA1537, Metabolic Activation: RAT, LIVER, S-9, AROCLOR 1254 (4 OR 10%), Method: STANDARD PLATE): inactive; negative | mutagenic call (Test System: AMES SALMONELLA TYPHIMURIUM, Strain/Indicator: TA1538, Metabolic Activation: RAT, LIVER, S-9, AROCLOR 1254 (4 OR 10%), Method: STANDARD PLATE): active; positive | mutagenic call (Test System: AMES SALMONELLA TYPHIMURIUM, Strain/Indicator: TA1538, Metabolic Activation: RAT, LIVER, S-9, AROCLOR 1254, Method: STANDARD PLATE): active; positive | mutagenic call (Test System: AMES SALMONELLA TYPHIMURIUM, Strain/Indicator: YG1024, Metabolic Activation: PLANT CELLS, Method: PREINCUBATION): active; positive | mutagenic call (Test System: CHINESE HAMSTER V-79, Strain/Indicator: V-79/6-THIOGUANINE, Metabolic Activation: NONE, Method: SUSPENSION/PLATE): inactive; negative | mutagenic call (Test System: CHINESE HAMSTER V-79, Strain/Indicator: V-79/6-THIOGUANINE, Metabolic Activation: RAT, LIVER, S-9, PHENOBARBITAL AND BETA-NAPHTHOFLAVONE, Method: SUSPENSION/PLATE): inactive; negative | mutagenic call (Test System: E.COLI, Strain/Indicator: WP2UVRA, Metabolic Activation: NONE, Method: PREINCUBATION): inactive; negative | mutagenic call (Test System: E.COLI, Strain/Indicator: WP2UVRA, Metabolic Activation: RAT LIVER S-9, PHENOBARBITAL AND BETA-NAPHTHOFLAVONE, Method: PREINCUBATION): inactive; negative | mutagenic call (Test System: UDS HUMAN HEPATOMA HEPG2 CELLS, Strain/Indicator: THY INCORP, Metabolic Activation: NONE, Method: AUTORADIOGRAPHY): active; positive | mutagenic call (Test System: UDS RAT HEPATOCYTES, Strain/Indicator: BROMODEOXYURIDINE INCORP, Metabolic Activation: NONE, Method: FLOW CYTOMETRIC ANALYSIS): active; positive | mutagenic call (Test System: UDS RAT HEPATOCYTES, Strain/Indicator: THY INCORP, Metabolic Activation: NONE, Method: AUTORADIOGRAPHY): active; positive
